Test [1] has as its system hippocampal neurogenesis (Dentate Gyrus). The test is described as follows: in vivo neurogenesis assay (BrdU+ cells in dentate gyrus). Details: species or system mice. The conditions noted are these: living mice; vehicle (DMSO) 7.3. An outline of the steps:
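Pools of ten compounds infused into the left ventricle of two adult mice per pool via cannula and mini-pump over one week, aimed at mid-nanomolar levels. Daily BrdU co-injected; brain sections stained for BrdU to count new dentate gyrus cells.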

A further test addresses T1, p70 (NAMPT) (Homo sapiens, UniProt P43490).
T1 construct: endogenous in cells; host or cells: H2122 lung cancer cells
Description: binding competition for photo-crosslinking of P7C3-S326 to p70 in H2122 cells. Particulars: 0.3 μM P7C3-S326 plus 5 μM competitor, p70 band intensity, P7C3-S326 alone compared with plus competitor, vehicle 1.0. An outline of the steps:
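H2122 cells were co-treated with 0.3 μM P7C3-S326 and 5 uM competing P7C3 analogs for 2 hours at 37° C, then UV-crosslinked at 306 nm for 15 minutes. Lysates were clicked to a fluorescent dye and run on SDS-PAGE. The p70 band was quantified relative to the DMSO control.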

T1 sequence (P43490 whole entry): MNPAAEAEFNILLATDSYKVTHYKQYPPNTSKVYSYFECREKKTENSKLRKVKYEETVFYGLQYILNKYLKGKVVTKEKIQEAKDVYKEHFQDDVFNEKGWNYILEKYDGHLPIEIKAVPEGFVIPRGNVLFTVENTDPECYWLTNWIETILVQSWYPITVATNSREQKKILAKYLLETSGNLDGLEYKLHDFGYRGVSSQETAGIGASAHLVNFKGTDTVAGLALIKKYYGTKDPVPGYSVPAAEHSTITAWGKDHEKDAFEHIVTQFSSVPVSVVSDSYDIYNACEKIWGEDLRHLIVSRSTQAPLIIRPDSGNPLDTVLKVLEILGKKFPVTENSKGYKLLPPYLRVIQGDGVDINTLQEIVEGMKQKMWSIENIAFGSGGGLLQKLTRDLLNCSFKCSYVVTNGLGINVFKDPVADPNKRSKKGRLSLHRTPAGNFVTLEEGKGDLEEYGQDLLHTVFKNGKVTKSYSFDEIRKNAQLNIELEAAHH

Regarding `COc1cccc(S(=O)(=O)CC(O)Cn2c3ccc(Br)cc3c3cc(Br)ccc32)c1` (centres unmarked) [S82], in test [1], the “Neurogenesis # BrdU+ Cells (X10E06)/mm3 Dentate Gyrus” value (shortened to “Neurogenesis # BrdU+ Cells”) was 11.8 (X10E06)/mm3. In addition, on p70 (NAMPT), the Binding competition is 2.3.
The like results for `Oc1ccc(SCC(O)Cn2c3ccc(Br)cc3c3cc(Br)ccc32)cc1` (centres unmarked) [S92] were, in that order, 8.4 (X10E06)/mm3 and 2.5.
The like results for `NC(=O)c1ccc2c(c1)c1cc(Br)ccc1n2CC(O)COc1ccccc1` (centres unmarked) [S146] were, in that order, 14.5 (X10E06)/mm3 and 2.8.
The like results for `Cc1ccc2[nH]c3ccc(Br)cc3c2c1` [S228] were, in that order, 20.2 (X10E06)/mm3 and 2.0.
For the molecule `O=C(COc1ccc(NCC(F)Cn2c3ccc(Br)cc3c3cc(Br)ccc32)cc1)NCCO` (centres unmarked) [S71], in test [1], the “Neurogenesis # BrdU+ Cells” value is recorded as 7.2 (X10E06)/mm3. The Binding competition at p70 (NAMPT) is listed as 3.1.
With `OC(COc1ccccc1)Cn1c2ccc(Br)cc2c2ncccc21` (centres unmarked) [S194], the “Neurogenesis # BrdU+ Cells” value in test [1] is recorded as 8.1 (X10E06)/mm3. Further, the Binding competition at p70 (NAMPT) is 5.1.
The like results for `OC(COc1ccccc1)Cn1c2ccc(Br)cc2c2cc(Br)ccc21` (centres unmarked) [S39] were, in that order, 14.8 (X10E06)/mm3 and 2.6.
As for `OC(CNc1cccc2ccccc12)Cn1c(-c2ccccc2)cc2ccccc21` (centres unmarked) [S185], the “Neurogenesis # BrdU+ Cells” value in test [1] was 12.6 (X10E06)/mm3. The Binding competition at p70 (NAMPT) is reported as 1.5.
The like results for `N#Cc1cc2c(cn1)[nH]c1ccc(Br)cc12` [S221] were, in that order, 14.8 (X10E06)/mm3 and 2.9.
Take `O=S(=O)(CC(O)Cn1c2ccc(Br)cc2c2cc(Br)ccc21)c1ccccc1` (centres unmarked) [S28]: the “Neurogenesis # BrdU+ Cells” value in test [1] is given as 13.6 (X10E06)/mm3. Also, the Binding competition at p70 (NAMPT) turned out to be 2.8.
The like results for `Cc1cc2c3cc(Br)ccc3n(CC(O)COc3ccccc3)c2cn1` (centres unmarked) [S190] were, in that order, 8.4 (X10E06)/mm3 and 4.1.
The like results for `OCCCc1cn(CC(O)Cn2c3ccc(Br)cc3c3cc(Br)ccc32)nn1` (centres unmarked) [S23] were, in that order, 7.4 (X10E06)/mm3 and 2.1.
The like results for `CC(C(N)=O)n1c2ccc(Br)cc2c2cc(Br)ccc21` (centres unmarked) [S220] were, in that order, 10.5 (X10E06)/mm3 and 2.9.
With `CN(C)C(CF)CN1c2ccccc2CCc2ccccc21` (centres unmarked) [S149], the “Neurogenesis # BrdU+ Cells” value in test [1] is 11.6 (X10E06)/mm3. Also, the Binding competition on p70 (NAMPT) is recorded as 1.2.
The like results for `OC(COc1ccccc1)Cn1c2ccc(Br)cc2c2cccnc21` (centres unmarked) [S186] were, in that order, 8.1 (X10E06)/mm3 and 3.4.
The like results for `Cc1ccc2c(c1)c1cc(Br)ccc1n2CC(=O)O` [S240] were, in that order, 14.3 (X10E06)/mm3 and 1.7.
On to `O=S(=O)(CC(O)Cn1c2ccc(Br)cc2c2cc(Br)ccc21)c1ccc(OCCF)cc1` (centres unmarked) [S156], for which the “Neurogenesis # BrdU+ Cells” value in test [1] is 15.0 (X10E06)/mm3. In addition, the Binding competition at p70 (NAMPT) came to 1.2.
The like results for `CCOC(=O)Cn1c2ccc(Br)cc2c2cc(Br)ccc21` [S164] were, in that order, 7.6 (X10E06)/mm3 and 1.3.
The like results for `COc1cccc(NCC(O)CN2c3ccc(Br)cc3CCc3cc(Br)ccc32)c1` (centres unmarked) [S76] were, in that order, 14.2 (X10E06)/mm3 and 1.1.
Turning to `O=S(=O)(CC(O)Cn1c2ccc(Cl)cc2c2cc(Cl)ccc21)c1ccccc1` (centres unmarked) [S52], the “Neurogenesis # BrdU+ Cells” value in test [1] is 10.8 (X10E06)/mm3. For the same molecule, the Binding competition at p70 (NAMPT) stood at 4.3.
The like results for `CCC(C)N(C)C(=O)c1cc2ccccc2c(-c2ccccc2Cl)n1` (centres unmarked) [S200, PK11195, reference compound] were, in that order, 11.1 (X10E06)/mm3 and 1.3.
Consider `N#Cc1cc2c3cc(Br)ccc3n(CC(O)COc3ccccc3)c2cn1` (centres unmarked) [S192], for which the “Neurogenesis # BrdU+ Cells” value in test [1] is given as 10.5 (X10E06)/mm3. On p70 (NAMPT), the Binding competition was 4.2.
As to `O=C(CCCCCC1SCC2NC(=O)NC21)NCCCCCOc1cccc(NCC(O)Cn2c3ccc(Br)cc3c3cc(Br)ccc32)c1` (centres unmarked) [S219], the “Neurogenesis # BrdU+ Cells” value in test [1] is 8.4 (X10E06)/mm3. In addition, the Binding competition at p70 (NAMPT) was 3.1.
The like results for `C=C/C=N\C=C\NCC(O)Cn1c2ccc(Br)cc2c2cc(Br)ccc21` (centres unmarked) [S58] were, in that order, 7.2 (X10E06)/mm3 and 2.5.
The like results for `O=C(O)c1cc2c3cc(Br)ccc3n(CC(O)COc3ccccc3)c2cn1` (centres unmarked) [S173] were, in that order, 12.8 (X10E06)/mm3 and 1.0.
The like results for `O=C(COc1ccc(SCC(O)Cn2c3ccc(Br)cc3c3cc(Br)ccc32)cc1)NCc1ccccc1` (centres unmarked) [S99] were, in that order, 7.6 (X10E06)/mm3 and 2.5.
As for `Nc1cccc(SCC(O)Cn2c3ccc(Br)cc3c3cc(Br)ccc32)c1` (centres unmarked) [S95], the “Neurogenesis # BrdU+ Cells” value in test [1] is on record as 8.6 (X10E06)/mm3. At p70 (NAMPT), the Binding competition turned out to be 4.6.
The like results for `N[C@@H](Cc1c[nH]c2ccccc12)C(=O)O` [S248] were, in that order, 10.1 (X10E06)/mm3 and 1.3.
The like results for `Cc1c(C)n(CC(O)CNc2ccccc2)c2ccc(Br)cc12` (centres unmarked) [S18] were, in that order, 10.9 (X10E06)/mm3 and 1.7.
The like results for `O=C(O)c1ccc2c(c1)c1cc(Br)ccc1n2CC(O)COc1ccccc1` (centres unmarked) [S153] were, in that order, 10.7 (X10E06)/mm3 and 1.4.
For `COc1cccc(NCC(O)Cn2c3ccc(Br)cc3c3cc(Br)ccc32)n1` (centres unmarked) [S188], the “Neurogenesis # BrdU+ Cells” value in test [1] is listed as 13.1 (X10E06)/mm3. The Binding competition at p70 (NAMPT) is 3.1.
The like results for `COc1ccc(S(=O)(=O)CC(O)Cn2c3ccc(Br)cc3c3cc(Br)ccc32)cc1` (centres unmarked) [S84] were, in that order, 12.8 (X10E06)/mm3 and 1.2.
Take `COc1cccc(N(CC(F)Cn2c3ccc(Br)cc3c3cc(Br)ccc32)S(=O)(=O)C(F)(F)F)c1` (centres unmarked) [S241]: in test [1], the “Neurogenesis # BrdU+ Cells” value is on record as 15.5 (X10E06)/mm3. For the same molecule, the Binding competition on p70 (NAMPT) turned out to be 1.3.
The like results for `COCC(O)Cn1c2ccc(Br)cc2c2cc(Br)ccc21` (centres unmarked) [S19] were, in that order, 10.5 (X10E06)/mm3 and 2.9.
The like results for `OC(CSc1ccccc1)Cn1c2ccc(Br)cc2c2cc(Br)ccc21` (centres unmarked) [S7] were, in that order, 15.5 (X10E06)/mm3 and 2.0.
The like results for `CN(C)CCCC1(c2ccc(F)cc2)OCc2cc(C#N)ccc21` (centres unmarked) [S119, Celexa, reference compound] were, in that order, 8.6 (X10E06)/mm3 and 1.2.
With `[O-][S+](CC(O)Cn1c2ccc(Br)cc2c2cc(Br)ccc21)c1ccccc1` (centres unmarked) [S27], the “Neurogenesis # BrdU+ Cells” value in test [1] is recorded as 8.1 (X10E06)/mm3. In addition, the Binding competition at p70 (NAMPT) is listed as 2.8.
The like results for `NNCCc1ccccc1` [S116, Nardi, reference compound] were, in that order, 11.0 (X10E06)/mm3 and 1.2.
The like results for `CC(=O)NCCOCC(O)Cn1c2ccc(Br)cc2c2cc(Br)ccc21` (centres unmarked) [S43] were, in that order, 11.7 (X10E06)/mm3 and 1.7.
The like results for `CN(C)C(=O)COc1ccc(NCC(F)Cn2c3ccc(Br)cc3c3cc(Br)ccc32)cc1` (centres unmarked) [S70] were, in that order, 7.4 (X10E06)/mm3 and 2.5.
On to `COc1cccc(NCC(O)Cn2c3ccc(C)cc3c3cc(C)ccc32)c1` (centres unmarked) [S2], for which the “Neurogenesis # BrdU+ Cells” value in test [1] was 8.1 (X10E06)/mm3. The Binding competition at p70 (NAMPT) stood at 3.7.
For the molecule `Cc1cc(Br)cc2c3cc(Br)cc(C)c3n(CC(O)CNc3ccccc3)c12` (centres unmarked) [S161], in test [1], the “Neurogenesis # BrdU+ Cells” value was 11.4 (X10E06)/mm3. Besides, the Binding competition on p70 (NAMPT) stood at 3.1.
The like results for `COc1cccc(NC[C@H](O)Cn2c3ccc(Br)cc3c3cc(Br)ccc32)c1` [S16] were, in that order, 9.2 (X10E06)/mm3 and 3.1.
The like results for `OC(COc1ccccc1)CN1c2ccccc2CCc2ccccc21` (centres unmarked) [S135] were, in that order, 7.1 (X10E06)/mm3 and 3.4.
The like results for `COc1cccc(NCC(O)CN2c3ccccc3CCc3ccccc32)c1` (centres unmarked) [S158] were, in that order, 12.5 (X10E06)/mm3 and 1.3.
Consider `O=C(COc1cccc(SCC(O)Cn2c3ccc(Br)cc3c3cc(Br)ccc32)c1)NCc1ccccc1` (centres unmarked) [S98], for which the “Neurogenesis # BrdU+ Cells” value in test [1] is reported as 6.9 (X10E06)/mm3. Moreover, the Binding competition at p70 (NAMPT) amounted to 1.1.
The like results for `COc1ccc(SCC(O)Cn2c3ccc(Br)cc3c3cc(Br)ccc32)cc1` (centres unmarked) [S78] were, in that order, 14.1 (X10E06)/mm3 and 2.7.
The like results for `CN1CCc2c(c3cc(Br)ccc3n2CC(O)COc2ccccc2)C1` (centres unmarked) [S131] were, in that order, 7.3 (X10E06)/mm3 and 3.5.
The like results for `OC(CNc1ccccc1)Cn1c2ccc(Br)cc2c2cc(Br)ncc21` (centres unmarked) [S30] were, in that order, 14.3 (X10E06)/mm3 and 3.3.
